We go through 4 compounds from PubChem BioAssay AID2310 (SRMLSC, 2010).

In this assay the test system is virus CPE inhibition assay, host cell viability. Description: dose response, CPE inhibition, cell viability (AID 2310).
[1] abbreviates: measured here: HTS CPE inhibition EC50.
The mark [2] stands for this setting: measured here: HTS cell viability IC50.
Where [3] appears, read: measured here: cytotoxicity, cell viability IC50.

Turning to `O=C(Nc1c(-c2ccccc2)nc2sccn12)c1ccccc1`, the concentration for a half-maximal effect (EC50) was 634 nM. The EC50 under setting [1] stood at 634 nM. For the same compound, the 50% cytotoxic concentration (CC50) under setting [2] was over 60000 nM. Moreover, the half-maximal cytotoxic concentration (CC50) under setting [3] was over 60000 nM.

Turning to `Cc1cccc(C2NC(=O)NC3=C2CCc2ccccc23)c1` (stereo unspecified), the concentration giving a half-maximal response (EC50) is 700 nM. In addition, under setting [1], the EC50 was 908 nM. Also, under setting [2], the 50% cytotoxic concentration (CC50) is over 20000 nM. Further, the CC50 under setting [3] was over 50000 nM.

For the compound `COc1ccc(-c2nc(=O)[nH]c3c2CCc2ccccc2-3)cc1`, the EC50 was 960 nM. Besides, under setting [1], the EC50 amounted to 1100 nM. Besides, the CC50 under setting [2] was over 20000 nM. Moreover, the CC50 under setting [3] was over 50000 nM.

With `O=C1NC2=C(CCc3ccccc32)C(c2ccc3c(c2)OCO3)N1` (stereo unspecified), the EC50 is 390 nM. Further, under setting [1], the EC50 was over 20000 nM. This compound showed a CC50 under setting [2] of 17500 nM. The CC50 under setting [3] amounted to 29600 nM.
